According to ChEMBL document CHEMBL2311418, “Structure-activity relationships of antitubercular salicylanilides consistent with disruption of the proton gradient via proton shuttling” (Bioorg Med Chem, 2013):
Values after ≈ are worked out from the molar mass of the structure shown.

Tests used:
[1] = test system: Mycobacterium tuberculosis; assay: Antitubercular activity against Mycobacterium tuberculosis H37Rv ATCC27294 assessed as complete cessation of growth; type: functional; settings: H37Rv ATCC 27294
[2] = Cytotoxicity against mouse macrophage cell line J774.1 (ATCC TIB-67) for 3 days by Alamar Blue; type: cell-based; settings: 72 h

Compound | MIC [1] [µM] | IC50 [2] [µM]
O=C(Nc1ccccc1)c1cc(Cl)ccc1O | 13 (≈ 3.22 µg/mL) | 22
Cc1cc(NS(=O)(=O)c2ccc(NC(=O)c3cc(Cl)ccc3O)cc2)no1 | > 50 | > 60
O=C(Nc1ccc(C(F)(F)F)cc1)c1cc(Cl)ccc1O | 1.6 (≈ 0.505 µg/mL) | 2.8
Cc1cc(C)cc(NC(=O)c2cc(Cl)ccc2O)c1 | ≥ 50 | 21
O=C(Nc1cccc(Br)c1)c1cc(Cl)ccc1O | 6.3 (≈ 2.06 µg/mL) | 5.7
N#Cc1cccc(NC(=O)c2cc(Cl)ccc2O)c1 | 25 (≈ 6.82 µg/mL) | 10
O=C(Nc1cccc(F)c1)c1cc(Cl)ccc1O | 6.3 (≈ 1.67 µg/mL) | 15
O=C(Nc1cc(Cl)cc(Cl)c1)c1cc(Cl)ccc1O | 1.6 (≈ 0.507 µg/mL) | 3.1
O=C(Nc1cc(F)cc(F)c1)c1cc(Cl)ccc1O | 3.1 (≈ 0.879 µg/mL) | 6.1
O=C(O)c1cccc(NC(=O)c2cc(Cl)ccc2O)c1 | > 50 | > 60
CCOC(=O)c1cccc(NC(=O)c2cc(Cl)ccc2O)c1 | 13 (≈ 4.16 µg/mL) | 17
NC(=O)c1cccc(NC(=O)c2cc(Cl)ccc2O)c1 | > 50 | > 60
O=C(Nc1ccccc1)c1cccc(NC(=O)c2cc(Cl)ccc2O)c1 | > 50 | > 60
O=C(Nc1ccc(F)cc1)c1cc(Cl)ccc1O | 13 (≈ 3.45 µg/mL) | 17
O=C(Nc1ccc(OC(F)(F)F)cc1)c1cc(Cl)ccc1O | 3.1 (≈ 1.03 µg/mL) | 7.3
O=C(Nc1ccc(Oc2ccccc2)cc1)c1cc(Cl)ccc1O | 13 (≈ 4.42 µg/mL) | 43
CC(C)(C)c1ccc(NC(=O)c2cc(Cl)ccc2O)cc1 | 13 (≈ 3.95 µg/mL) | 19
COc1ccc(NC(=O)c2cc(Cl)ccc2O)cc1 | > 50 | > 60
O=C(Nc1ccc(N2CCOCC2)cc1)c1cc(Cl)ccc1O | > 50 | –
NC(=O)c1ccc(NC(=O)c2cc(Cl)ccc2O)cc1 | > 50 | > 60
O=C(Nc1ccccc1)c1ccc(NC(=O)c2cc(Cl)ccc2O)cc1 | > 50 | > 60
O=C(Nc1ccc(S(=O)(=O)Nc2ccccc2)cc1)c1cc(Cl)ccc1O | > 50 | > 60
Cc1c(NC(=O)c2cc(Cl)ccc2O)cccc1C(F)(F)F | 3.1 (≈ 1.02 µg/mL) | 8
O=C(Nc1cccc(C(F)(F)F)c1F)c1cc(Cl)ccc1O | 3.1 (≈ 1.03 µg/mL) | 5.3

Compound | MIC [1] [µM] | IC50 [2] [µM]
O=C(Nc1cccc(F)c1F)c1cc(Cl)ccc1O | 13 (≈ 3.69 µg/mL) | 13
O=C(Nc1ccc(F)cc1C(F)(F)F)c1cc(Cl)ccc1O | 6.3 (≈ 2.1 µg/mL) | 13
O=C(Nc1ccc(Br)cc1C(F)(F)F)c1cc(Cl)ccc1O | 6.3 (≈ 2.49 µg/mL) | 11
O=C(Nc1ccc(C(F)(F)F)cc1Cl)c1cc(Cl)ccc1O | 0.8 (≈ 0.28 µg/mL) | 2.4
O=C(Nc1ccc(F)cc1F)c1cc(Cl)ccc1O | 13 (≈ 3.69 µg/mL) | 8.5
O=C(Nc1cc(C(F)(F)F)ccc1Cl)c1cc(Cl)ccc1O | 1.6 (≈ 0.56 µg/mL) | 3.5
O=C(Nc1cc(C(F)(F)F)ccc1F)c1cc(Cl)ccc1O | 1.6 (≈ 0.534 µg/mL) | 2.6
O=C(Nc1cc(C(F)(F)F)ccc1Br)c1cc(Cl)ccc1O | 0.8 (≈ 0.316 µg/mL) | 2.9
COc1ccc(C(F)(F)F)c(NC(=O)c2cc(Cl)ccc2O)c1 | 6.3 (≈ 2.18 µg/mL) | 4.8
O=C(Nc1cc(F)ccc1Cl)c1cc(Cl)ccc1O | 3.1 (≈ 0.93 µg/mL) | 3.2
O=C(Nc1cc([N+](=O)[O-])ccc1F)c1cc(Cl)ccc1O | 6.3 (≈ 1.96 µg/mL) | 8.5
O=C(Nc1c(Cl)cccc1C(F)(F)F)c1cc(Cl)ccc1O | > 50 | 23
O=C(Nc1c(F)cccc1F)c1cc(Cl)ccc1O | > 50 | > 60
O=C(Nc1ccc(F)c(C(F)(F)F)c1)c1cc(Cl)ccc1O | 1.6 (≈ 0.534 µg/mL) | 5.3
O=C(Nc1ccc(Cl)c(C(F)(F)F)c1)c1cc(Cl)ccc1O | 1.6 (≈ 0.56 µg/mL) | 4.5
O=C(Nc1ccc(Br)c(C(F)(F)F)c1)c1cc(Cl)ccc1O | 3.1 (≈ 1.22 µg/mL) | 4.5
N#Cc1ccc(NC(=O)c2cc(Cl)ccc2O)cc1C(F)(F)F | 6.3 (≈ 2.15 µg/mL) | 5.8
O=C(Nc1ccc(F)c(Cl)c1)c1cc(Cl)ccc1O | 3.1 (≈ 0.93 µg/mL) | 4.4
O=C(Nc1ccc(F)c(F)c1)c1cc(Cl)ccc1O | 3.1 (≈ 0.879 µg/mL) | 7.7
Cc1ccc(NC(=O)c2cc(Cl)ccc2O)cc1I | 6.3 (≈ 2.44 µg/mL) | 6.3
O=C(Nc1cc(Br)ccc1C(F)(F)F)c1cc(Cl)ccc1O | 1.6 (≈ 0.631 µg/mL) | 5.8
COc1cc(NC(=O)c2cc(Cl)ccc2O)cc(C(F)(F)F)c1 | 6.3 (≈ 2.18 µg/mL) | 18
CC(C)(C)c1cc(NC(=O)c2cc(Cl)ccc2O)cc(C(C)(C)C)c1 | 6.3 (≈ 2.27 µg/mL) | 4.1
